From article PMC3189207, “DomPep—A General Method for Predicting Modular Domain-Mediated Protein-Protein Interactions” (PLoS ONE, 2011) come the findings set out here.

One assay addresses T1, Scrib PDZ-1 domain (Homo sapiens, UniProt Q14160).
T1 construct: ROC curves of DomPep prediction for the three Scrib PDZ-1/2/3 domains
Nature of the assay: In-solution fluorescence polarization binding of peptides to Scrib PDZ1. As to conditions: Kd value of 100 µM applied as binding cutoff, NB without definition, read-out: Kd (µM) PDZ1. Background: Fluorescence polarisation rises when a labelled molecule tumbles more slowly, as on binding a larger partner.

The target of a further assay is T2, Scrib PDZ-2 domain (Homo sapiens, UniProt Q14160).
T2 construct: ROC curves of DomPep prediction for the three Scrib PDZ-1/2/3 domains
T2 sequence (Q14160 862-950 limits assumed): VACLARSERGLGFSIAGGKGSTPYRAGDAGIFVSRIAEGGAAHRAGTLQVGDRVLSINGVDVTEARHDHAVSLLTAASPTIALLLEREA
Nature of the assay: In-solution fluorescence polarization binding of peptides to Scrib PDZ2. The conditions noted are these: Kd value of 100 µM applied as binding cutoff, NB without definition, read-out: Kd (µM) PDZ2.

The next assay has as its target T3, Scrib PDZ-3 domain (Homo sapiens, UniProt Q14160).
T3 construct: ROC curves of DomPep prediction for the three Scrib PDZ-1/2/3 domains
T3 sequence (Q14160 1004-1093 limits assumed): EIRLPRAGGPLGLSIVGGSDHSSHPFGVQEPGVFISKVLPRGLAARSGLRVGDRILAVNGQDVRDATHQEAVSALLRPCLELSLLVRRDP
Nature of the assay: In-solution fluorescence polarization binding of peptides to Scrib PDZ3. As to conditions: Kd value of 100 µM applied as binding cutoff, NB without definition. The text has this:
Because DomPep compared favorably to MDSM in identifying ligands for a PDZ domain included in the training set and to SPSSM in identifying binding peptides for an untrained PDZ domain, we next tested it whether it could reliably PPIs mediated by a PDZ domain on the genome scale. To this end, we employed three DomPep models to predict interactions between the Scrib PDZ domains and human proteins from the Swiss-Prot protein database. The three prediction models, which were generated for the mouse Scrib PDZ-1, PDZ-2 and PDZ-3 domains, were trained with 6, 5 and 30 positive peptide, respectively (Table S1). Searching the protein database with these models yielded a list of potential PDZ ligands. […] This experiment identified 14, 14, and 38 positives for the PDZ-1, -2, and -3 domains, respectively (Table 1). […] Importantly, we identified four peptides that were not included in the training set as physiological binders to the Scrib PDZ domains. The corresponding proteins, namely APC, LPP, VANGL2 and ZO2, were previously reported to interact with Scrib in vivo via its PDZ domains, [36], [37], [38], [39].
Figure 4 Application of DomPep to the prediction of PDZ-binding ligands. ROC curves of DomPep prediction for the three Scrib PDZ-1/2/3 domains using 56 peptides selected from the human protein database as the test set. The respective affinities of the three domains for the 56 peptides were measured by fluorescence polarization (Table 1).

Residues, ends and D or L forms follow the SMILES beside them.

T1 sequence (Q14160 728-815 limits assumed): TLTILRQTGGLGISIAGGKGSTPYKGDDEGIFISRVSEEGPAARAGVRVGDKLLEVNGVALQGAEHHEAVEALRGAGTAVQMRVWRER

Take `CC(C)C[C@H](NC(=O)[C@H](CCC(=O)O)NC(=O)[C@H](CCC(=O)O)NC(=O)[C@H](CCCNC(=N)N)NC(=O)[C@@H](NC(=O)[C@H](C)NC(=O)[C@H](CO)NC(=O)[C@@H](NC(=O)[C@H](CCCCN)NC(=O)[C@@H](N)CCC(=O)O)C(C)C)[C@@H](C)O)C(=O)O` (H-EKVSATREEL-OH): the Kd at Scrib PDZ-1 domain is greater than 100 µM; on Scrib PDZ-2 domain it was greater than 100 µM; at Scrib PDZ-3 domain it was 88.1 µM.
As for `CC(C)C[C@H](NC(=O)[C@@H](N)C(C)C)C(=O)N[C@@H](CCC(N)=O)C(=O)N[C@@H](CCCNC(=N)N)C(=O)N[C@@H](Cc1c[nH]cn1)C(=O)N[C@H](C(=O)N[C@H](C(=O)NCC(=O)N[C@@H](CCCCN)C(=O)N[C@@H](C)C(=O)O)[C@@H](C)O)[C@@H](C)O` [ACBD6] (H-VLQRHTTGKA-OH; N-terminus and C-terminus assumed), the dissociation constant Kd on Scrib PDZ-1 domain, at Scrib PDZ-2 domain and at Scrib PDZ-3 domain was greater than 100 µM in each case.
In the case of `CC(C)C[C@H](NC(=O)[C@H](CC(C)C)NC(=O)[C@@H](NC(=O)CNC(=O)[C@H](Cc1ccc(O)cc1)NC(=O)[C@H](CC(C)C)NC(=O)[C@H](CCC(N)=O)NC(=O)[C@H](C)NC(=O)[C@@H](N)CCCCN)[C@@H](C)O)C(=O)N[C@@H](CC(N)=O)C(=O)O` [BEGAIN] (H-KAQLYGTLLN-OH; N-terminus and C-terminus assumed), the Kd at Scrib PDZ-1 domain, on Scrib PDZ-2 domain and on Scrib PDZ-3 domain was greater than 100 µM in each case.
Regarding `CC(C)C[C@H](NC(=O)[C@H](CCC(=O)O)NC(=O)[C@H](CCCNC(=N)N)NC(=O)[C@H](Cc1c[nH]c2ccccc12)NC(=O)[C@@H]1CCCN1C(=O)[C@@H]1CCCN1C(=O)[C@H](CC(=O)O)NC(=O)CNC(=O)[C@H](CCCNC(=N)N)NC(=O)[C@@H]1CCCN1)C(=O)O` [C19orf57] (H-PRGDPPWREL-OH; N-terminus and C-terminus assumed), the Kd at Scrib PDZ-1 domain, at Scrib PDZ-2 domain and on Scrib PDZ-3 domain was greater than 100 µM throughout.
As for `CSCC[C@H](NC(=O)[C@H](CC(C)C)NC(=O)[C@@H](NC(=O)[C@H](CS)NC(=O)[C@H](CCCCN)NC(=O)CNC(=O)[C@H](CCCCN)NC(=O)[C@@H](NC(=O)[C@H](CCCNC(=N)N)NC(=O)[C@@H](N)CC(=O)O)C(C)C)[C@@H](C)O)C(=O)O` [DIRAS1] (H-DRVKGKCTLM-OH; N-terminus and C-terminus assumed), the Kd at Scrib PDZ-1 domain, at Scrib PDZ-2 domain and on Scrib PDZ-3 domain was greater than 100 µM each time.
`CC[C@H](C)[C@H](NC(=O)[C@@H]1CCCN1C(=O)[C@@H](NC(=O)CNC(=O)[C@@H](NC(=O)[C@@H](NC(=O)[C@H](CC(N)=O)NC(=O)[C@@H](NC(=O)[C@H](CCC(N)=O)NC(=O)[C@@H](N)CC(=O)O)C(C)C)[C@@H](C)O)C(C)C)[C@@H](C)CC)C(=O)O` [EPHA2] (H-DQVNTVGIPI-OH; N-terminus and C-terminus assumed): the Kd on Scrib PDZ-1 domain, on Scrib PDZ-2 domain and on Scrib PDZ-3 domain was greater than 100 µM in each case.
For the molecule `CC(C)[C@H](NC(=O)[C@@H]1CCCN1C(=O)[C@@H](NC(=O)[C@@H]1CCCN1C(=O)CNC(=O)[C@H](CC(N)=O)NC(=O)[C@H](CCCCN)NC(=O)[C@H](CO)NC(=O)[C@H](CCC(N)=O)NC(=O)[C@@H](N)[C@@H](C)O)C(C)C)C(=O)O` [EPHA3] (H-TQSKNGPVPV-OH), the results for the Kd at Scrib PDZ-1 domain, on Scrib PDZ-2 domain and at Scrib PDZ-3 domain were 129 µM, greater than 100 µM and greater than 100 µM, respectively.
Take `CC[C@H](C)[C@H](NC(=O)CNC(=O)[C@@H](NC(=O)CNC(=O)[C@H](Cc1c[nH]cn1)NC(=O)[C@H](CC(C)C)NC(=O)[C@H](Cc1c[nH]cn1)NC(=O)[C@@H](N)CC(C)C)[C@@H](C)O)C(=O)N[C@@H](CCC(N)=O)C(=O)N[C@H](C(=O)O)C(C)C` [EPHA7] (H-LHLHGTGIQV-OH; N-terminus and C-terminus assumed): the Kd on Scrib PDZ-1 domain, at Scrib PDZ-2 domain and on Scrib PDZ-3 domain was greater than 100 µM each time.
As for `CC(C)C[C@H](NC(=O)[C@@H](NC(=O)[C@@H](NC(=O)[C@H](CO)NC(=O)[C@@H]1CCCN1C(=O)[C@H](CC(C)C)NC(=O)[C@H](CCCCN)NC(=O)[C@H](CCCNC(=N)N)NC(=O)[C@@H](NC(=O)[C@@H](N)CCCNC(=N)N)C(C)C)[C@@H](C)O)[C@@H](C)O)C(=O)O` [RPS6KA1] (H-RVRKLPSTTL-OH), the Kd at Scrib PDZ-1 domain and at Scrib PDZ-2 domain was greater than 100 µM in each case.
On to `CSCC[C@H](NC(=O)CN)C(=O)N[C@@H](CCCCN)C(=O)N[C@@H](CCCNC(=N)N)C(=O)N[C@@H](CC(C)C)C(=O)N[C@H](C(=O)N[C@@H](CO)C(=O)N[C@H](C(=O)N[C@@H](CCCNC(=N)N)C(=O)N[C@@H](CC(C)C)C(=O)O)[C@@H](C)O)[C@@H](C)O` [RPS6KA2] (H-GMKRLTSTRL-OH), for which the Kd is greater than 100 µM at Scrib PDZ-1 domain and 62.7 µM at Scrib PDZ-2 domain.
With `CC(C)C[C@H](NC(=O)[C@H](CC(N)=O)NC(=O)[C@H](CCC(=O)O)NC(=O)CNC(=O)[C@@H]1CCCN1C(=O)[C@H](CCC(N)=O)NC(=O)[C@H](Cc1ccc(O)cc1)NC(=O)[C@H](CCC(N)=O)NC(=O)[C@@H]1CCCN1C(=O)[C@@H](N)CCC(=O)O)C(=O)O` [SRC] (H-EPQYQPGENL-OH), the Kd on Scrib PDZ-1 domain and at Scrib PDZ-2 domain was greater than 100 µM in each case.
`CC[C@H](C)[C@H](NC(=O)[C@H](CCC(N)=O)NC(=O)[C@@H](NC(=O)[C@@H](NC(=O)[C@H](Cc1c[nH]cn1)NC(=O)[C@H](CCC(N)=O)NC(=O)CNC(=O)[C@@H]1CCCN1C(=O)[C@H](C)NC(=O)[C@@H]1CCCN1)[C@@H](C)O)[C@@H](C)O)C(=O)O` [STK16] (H-PAPGQHTTQI-OH): the Kd on Scrib PDZ-1 domain and on Scrib PDZ-2 domain was greater than 100 µM each time.
Consider `CC(C)C[C@H](NC(=O)[C@H](CO)NC(=O)[C@H](CO)NC(=O)[C@H](CCC(=O)O)NC(=O)[C@H](Cc1ccc(O)cc1)NC(=O)[C@H](CO)NC(=O)[C@@H](NC(=O)[C@H](C)NC(=O)[C@@H](NC(=O)[C@@H](N)CCCCN)C(C)C)[C@@H](C)O)C(=O)O` [STK29] (H-KVATSYESSL-OH), for which the Kd on Scrib PDZ-1 domain and on Scrib PDZ-2 domain was greater than 100 µM in each case.
As to `CSCC[C@H](NC(=O)[C@H](Cc1ccccc1)NC(=O)[C@H](C)NC(=O)[C@@H](N)Cc1c[nH]c2ccccc12)C(=O)N[C@@H](CCCNC(=N)N)C(=O)N[C@@H](Cc1ccc(O)cc1)C(=O)N[C@@H](CCCNC(=N)N)C(=O)N[C@@H](CCC(N)=O)C(=O)N[C@@H](CCC(N)=O)C(=O)N[C@@H](CC(C)C)C(=O)O` [SYNJ2BP] (H-WAFMRYRQQL-OH), the Kd on Scrib PDZ-1 domain and at Scrib PDZ-2 domain was greater than 100 µM each time.
For `CC[C@H](C)[C@H](NC(=O)[C@H](CO)NC(=O)[C@H](CO)NC(=O)[C@H](CCC(=O)O)NC(=O)[C@H](C)NC(=O)[C@H](CO)NC(=O)[C@H](C)NC(=O)[C@@H](NC(=O)[C@H](CC(=O)O)NC(=O)[C@@H](N)C(C)C)[C@@H](C)CC)C(=O)O` [TANK] (H-VDIASAESSI-OH), the Kd at Scrib PDZ-1 domain is 102 µM; at Scrib PDZ-2 domain it was greater than 100 µM.
Consider `CC[C@H](C)[C@H](NC(=O)[C@H](CC(=O)O)NC(=O)[C@H](CC(N)=O)NC(=O)[C@H](CC(C)C)NC(=O)[C@H](C)NC(=O)[C@H](CC(N)=O)NC(=O)[C@@H](N)CC(=O)O)C(=O)N[C@H](C(=O)N[C@@H](CO)C(=O)N[C@@H](CC(C)C)C(=O)O)[C@@H](C)O` [TPM2] (H-DNALNDITSL-OH), for which the Kd at Scrib PDZ-1 domain and on Scrib PDZ-2 domain was greater than 100 µM in each case.
Take `CC[C@H](C)[C@H](NC(=O)[C@@H](NC(=O)[C@H](CCC(=O)O)NC(=O)[C@H](CO)NC(=O)[C@@H]1CCCN1C(=O)[C@H](CCC(N)=O)NC(=O)[C@H](C)NC(=O)[C@H](CO)NC(=O)[C@@H](N)CO)[C@@H](C)O)C(=O)N[C@@H](CC(C)C)C(=O)O` [ZNF654] (H-SSAQPSETIL-OH): the Kd at Scrib PDZ-1 domain was greater than 100 µM; at Scrib PDZ-2 domain, 32.1 µM.
As to `CC(C)C[C@H](NC(=O)[C@H](CCC(=O)O)NC(=O)[C@@H](NC(=O)[C@H](CC(=O)O)NC(=O)[C@H](Cc1ccc(O)cc1)NC(=O)[C@H](CCCNC(=N)N)NC(=O)[C@H](C)NC(=O)[C@H](CO)NC(=O)[C@@H](N)CCC(N)=O)[C@@H](C)O)C(=O)O` [ZO2] (H-QSARYDTEL-OH), the Kd is 16 µM at Scrib PDZ-1 domain and greater than 100 µM at Scrib PDZ-2 domain.
`CC(C)C[C@H](NC(=O)[C@H](CC(N)=O)NC(=O)[C@@H](NC(=O)[C@H](CCC(=O)O)NC(=O)[C@H](CC(=O)O)NC(=O)[C@H](Cc1c[nH]c2ccccc12)NC(=O)[C@H](C)NC(=O)[C@@H]1CCCN1C(=O)[C@H](CC(=O)O)NC(=O)[C@@H](N)CC(N)=O)[C@@H](C)O)C(=O)O` [b-PIX] (H-NDPAWDETNL-OH): the results for the Kd at Scrib PDZ-1 domain and on Scrib PDZ-2 domain were 5.3 µM and 16.8 µM, respectively.

The term Kd denotes a measure of binding affinity in units of concentration.
